Source: the supplement of paper PMC4723716

System: Plasmodium falciparum NF54 gametocytes
Conditions: 384, incubation time: 72 h
Procedure, shortened: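 In 384-well plates, P. falciparum NF54 gametocytes at each stage (I–V) were treated in duplicate with compound dilutions for 72 hr at 37°C under low oxygen, using either a serum-free one-step or a serum-containing two-step assay. Surviving gametocytes were stained with MitoTracker Red CMXRos, counted by high-content imaging and normalised to the plate mean of vehicle wells. A standard logistic regression model was used to fit IC50.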

[1] = gametocyte stage: Stage I Dose Response IC50 (µM), assay protocol: TSSA
[2] = gametocyte stage: Stage II Dose Response IC50 (µM), assay protocol: TSSA
[3] = gametocyte stage: Stage III Dose Response IC50 (µM), assay protocol: TSSA
[4] = gametocyte stage: Stage IV Dose Response IC50 (µM), assay protocol: TSSA
[5] = gametocyte stage: Stage V Dose Response IC50 (µM), assay protocol: TSSA
[6] = gametocyte stage: Stage I Dose Response IC50 (µM), assay protocol: SaLSSA
[7] = gametocyte stage: Stage II Dose Response IC50 (µM), assay protocol: SaLSSA
[8] = gametocyte stage: Stage III Dose Response IC50 (µM), assay protocol: SaLSSA
[9] = gametocyte stage: Stage IV Dose Response IC50 (µM), assay protocol: SaLSSA
[10] = gametocyte stage: Stage V Dose Response IC50 (µM), assay protocol: SaLSSA

Structure (SMILES) | IC50 of gametocyte viability [1] [µM] | IC50 of gametocyte viability [2] [µM] | IC50 of gametocyte viability [3] [µM] | IC50 of gametocyte viability [4] [µM] | IC50 of gametocyte viability [5] [µM] | IC50 of gametocyte viability [6] [µM] | IC50 of gametocyte viability [7] [µM] | IC50 of gametocyte viability [8] [µM] | IC50 of gametocyte viability [9] [µM] | IC50 of gametocyte viability [10] [µM]
CC(C)(C)NCc1cc(Nc2ccnc3cc(Cl)ccc23)c2c(c1O)CCCC2 [Naphthoquine] | 0.0234 | 0.0128 | > 4.17 | > 4.17 | > 4.17 | – | – | – | – | –
O=CN(O)CCCP(=O)([O-])O [fosmidomycin mono sodium] | – | – | – | – | – | > 12.5 | > 12.5 | > 12.5 | > 12.5 | > 12.5
C[C@H]1[C@@H](O)O[C@@H]2O[C@@]3(C)CC[C@H]4[C@H](C)CC[C@@H]1[C@@]24OO3 [Artenimol (Dihydro artemisinin)] | 0.00685 | 0.00766 | 0.0152 | 0.0403 | > 12.5 | – | – | – | – | –
COc1ccc2nc3cc(Cl)ccc3c(Nc3cc(CN4CCCC4)c(O)c(CN4CCCC4)c3)c2n1 [Pyronaridine phosphate] | – | – | – | – | – | 0.0132 | 0.01 | 0.125 | 2.58 | 2.08
CNc1ccc(N(C)C(=O)c2cn3c(-c4ccc(Cl)cc4)cnc3cn2)cc1 [KDU691] | – | – | – | – | – | 0.532 | 0.565 | 0.354 | 0.237 | 0.15
COc1cc(C)c2c(Oc3cccc(C(F)(F)F)c3)c(OC)cc(NC(C)CCCN)c2n1 (stereo not drawn) [Tafenoquine] | – | – | – | – | – | 4.56 | 3.68 | 3.74 | 3.48 | 2.45
CN(C(=O)c1cn2c(-c3ccc(C#N)cc3)cnc2cn1)c1ccc(C(F)(F)F)cc1 [KAI407] | – | – | – | – | – | 0.593 | 0.636 | 0.415 | 0.329 | 0.156
Cc1cc(NS(=O)(=O)c2ccc(N)cc2)no1 [Sulfamethoxazole] | – | – | – | – | – | > 12.5 | > 12.5 | > 12.5 | > 12.5 | > 12.5
CCCCN(CCCC)CC(O)c1cc(Cl)cc2c1-c1ccc(Cl)cc1/C2=C/c1ccc(Cl)cc1 (stereo not drawn) [Lumefantrine] | – | – | – | – | – | 0.0128 | 0.0131 | 0.015 | 0.599 | 0.0523
CC(C)(N)CNC(=O)C[C@H]1CC[C@]2(CC1)OOC1(O2)C2CC3CC(C2)CC1C3 (stereo partly drawn) | – | – | – | – | – | 0.00769 | 0.00395 | 0.00158 | 0.00787 | > 12.5
CCc1nc(N)nc(N)c1-c1ccc(Cl)cc1 [pyrimethamine] | – | – | – | – | – | > 12.5 | > 12.5 | > 12.5 | > 12.5 | > 12.5
O=C1C(O)=C([C@H]2CC[C@H](c3ccc(Cl)cc3)CC2)C(=O)c2ccccc21 [Atovaquone] | – | – | – | – | – | > 12.5 | > 12.5 | > 12.5 | 2.37 | > 12.5
CCCCN(CCCC)CCC(O)c1cc2c(Cl)cc(Cl)cc2c2cc(C(F)(F)F)ccc12 (stereo not drawn) [Halofantrine] | 0.00577 | – | – | > 12.5 | > 12.5 | – | – | – | – | –
C[C@H]1[C@H](N2CCS(=O)(=O)CC2)O[C@@H]2O[C@@]3(C)CC[C@H]4[C@H](C)CC[C@@H]1[C@@]24OO3 [Artemisone] | 0.00264 | 0.00244 | 0.00605 | 0.00548 | > 7.85 | – | – | – | – | –
